Values of other authors, collected in paper PMC11406440 (Food and chemical toxicology : an international journal …, 2024).
Read-outs that look alike come from different tables or passages of the source.

What was measured:
[1] = ref ATSDR, 2021; cited from earlier work
[2] = 4-day dermal exposure, ref Franko et al., 2012, cited from earlier work
[3] = ex vivo mouse skin; ref Franko et al., 2012; cited from earlier work
[4] = ex vivo human full-thickness skin; ref Franko et al., 2012; cited from earlier work
IgM response to SRBC = details: cited from earlier work
[5] = 5% dermal exposure, same conditions; ref Weatherly et al., 2023; cited from earlier work
mice = details: dermal exposure; ref Weatherly et al., 2021, 2023; cited from earlier work
male rats = details: 3 and 10 mg/kg/d; ref Butenhoff et al., 2009; cited from earlier work

Compound	Average serum concentration [5] [µg/mL]	Average urine concentration [5] [µg/mL]	Cholesterol (mice)	Glucose levels (mice)	further results
O=C(O)C(F)(F)C(F)(F)C(F)(F)C(F)(F)C(F)(F)C(F)(F)C(F)(F)F [PFOA, perfluorooctanoic acid]	–	–	–	–	Half-life in humans [1]: 2.1–10.1 years; Serum PFOA level ([2]; 0.5% PFOA): 152 ± 14 µg/mL; Serum PFOA level ([2]; 2% PFOA): 226 ± 14 µg/mL; Total absorbable fraction [3]: 50%; Total absorbable fraction [4]: 69%; SRBC IgM antibody titers (IgM response to SRBC; 15 days, 3.75–30 mg/kg via drinking water, ref Dewitt et al., 2008): reduce; IgM response to SRBC (IgM response to SRBC; dermal exposure, ref Shane et al., 2020): suppression
O=C(O)C(F)(F)C(F)(F)C(F)(F)C(F)(F)C(F)(F)C(F)(F)F [PFHpA, perfluoroheptanoic acid]	137	1200	no effect	increased	–
O=C(O)C(F)(F)C(F)(F)C(F)(F)F [PFBA, heptafluorobutyric acid]	–	–	increased	increased	–
O=S(=O)([O-])C(F)(F)C(F)(F)C(F)(F)C(F)(F)C(F)(F)C(F)(F)F.[K+] [K^+PFHxS, PFHxS potassium salt]	–	–	–	–	Liver weight (male rats): increase
O=C(O)C(F)(F)C(F)(F)C(F)(F)C(F)(F)C(F)(F)F [PFHxA, perfluorohexanoic acid]	4.8	1700	no effect	increased	–
O=C(O)C(F)(F)C(F)(F)C(F)(F)C(F)(F)F [PFPeA, perfluoropentanoic acid]	–	–	no effect	increased	–
